Laboratory results: ChEMBL document CHEMBL4622982, “Discovery and Biological Evaluation of a Novel Highly Potent Selective Butyrylcholinsterase Inhibitor” (J Med Chem, 2020)
pIC50, pKi: −log10 of the molar value. The source made the active and inactive calls. The calls are words filed in the database; no cut-off is given here.

What was measured:
[1] = Effective permeability by PAMPA-BBB penetration assay; type: ADME; conditions: read-out: Peff
[2] = biological target: Cholinesterase (Equus caballus) (UniProt P81908); test: Inhibition of equine serum BChE at 10 uM pre-incubated for 5 mins before butyrylthiocholine iodide substrate addition and measured after 2 mins
[3] = biological target: Acetylcholinesterase (Electrophorus electricus) (UniProt O42275); test: Inhibition of Electrophorus electricus AChE at 10 uM pre-incubated for 5 mins before acetylthiocholine iodide substrate addition and measured after 2 mins
Acetylcholinesterase = Acetylcholinesterase (Electrophorus electricus, UniProt O42275); test: Inhibition of Electrophorus electricus AChE pre-incubated for 5 mins before acetylthiocholine iodide substrate addition and measured after 2 mins
Cholinesterase [4] = biological target: T1, Cholinesterase (Equus caballus, UniProt P81908); test: Inhibition of equine serum BChE pre-incubated for 5 mins before butyrylthiocholine iodide substrate addition and measured after 2 mins
[5] = Intrinsic clearance in human liver microsomes at 1 uM in presence of NADPH by LC-MS/MS analysis; type: ADME, Microsome; conditions: read-out: CLH
[6] = Half life in human liver microsomes at 1 uM in presence of NADPH by LC-MS/MS analysis; type: ADME, Microsome
Mus musculus [7] = test: Improvement in cognition in ICR mouse model of Abeta(1-42)-induced cognition-impairment assessed as improvement in trajectories to platform at 15 mg/kg, po dosed from days 3 to 14 by Morris water maze test; type: functional, organism-based
Mus musculus [8] = test: Improvement in cognition in ICR mouse model of Abeta(1-42)-induced cognition-impairment assessed as escape latency time at 15 mg/kg, po dosed from days 3 to 14 by Morris water maze test (reference value: 48.9 secs); type: functional
Mus musculus [9] = test: Reduction in the Abeta(1-42) peptide level in ICR mouse model of Abeta(1-42)-induced cognition-impairment at 15 mg/kg, po dosed from days 3 to 14 by ELISA relative to control; type: functional; set-up: scale not given: the % may be the effect or the level left
Mus musculus [10] = test: Improvement in cognition in ICR mouse model of Abeta(1-42)-induced cognition-impairment assessed as spontaneous alternation performance level at 15 mg/kg, po dosed from days 3 to 14 and measured on day 15 by Y maze test (reference value: 34.43%); type: functional
Cholinesterase [11] = biological target: T1, Cholinesterase; test: Noncompetitive inhibition of equine serum BChE pre-incubated for 5 mins before butyrylthiocholine iodide substrate addition and measured after 2 mins by Lineweaver-Burk plot analysis
[12] = Hepatotoxicity in ICR mouse assessed as induction of fatty degeneration of hepatocytes of surrounding intermediate and periportal zones at 30 mg/kg, ig measured after 8 to 36 hrs post dose by immunohistochemical staining assay; type: toxicity, organism-based; conditions: in vivo, po
SH-SY5Y [13] = test: Toxicity in human SH-SY5Y cells assessed as reduction in cell viability at 2.5 to 50 uM incubated for 24 hrs by MTT assay; type: cell-based
PC-12 [14] = test: Toxicity in rat PC12 cells assessed as reduction in cell viability at 100 uM incubated for 24 hrs by MTT assay relative to control; type: cell-based; conditions: pc-12, 24 h
Mus musculus [15] = test: Improvement in cognition in ICR mouse model of scopolamine-induced cognition-impairment assessed as improvement in trajectories to platform at 15 to 30 mg/kg, po dosed 30 mins before scopolamine challenge for 10 days by Morris water maze test; type: functional, organism-based
Cholinesterase [16] = biological target: Cholinesterase (Homo sapiens, UniProt P06276); test: Inhibition of human BChE pre-incubated for 5 mins before butyrylthiocholine iodide substrate addition and measured after 2 mins
[17] = Toxicity in ICR mouse model of scopolamine-induced cognition-impairment assessed as induction of behavioral abnormities at 15 to 30 mg/kg, po dosed 30 mins before scopolamine challenge for 10 days; type: organism-based; conditions: in vivo
[18] = Toxicity in ICR mouse assessed as induction of abnormal behaviors at 1 mg/kg, ig; type: organism-based; conditions: in vivo, po
[19] = Hepatotoxicity in ICR mouse assessed as induction of pericentral necrosis at 30 mg/kg, ig measured after 8 to 36 hrs post dose by immunohistochemical staining assay; type: toxicity, organism-based; conditions: in vivo, po
[20] = Toxicity in ICR mouse assessed as induction of animal death at 1 mg/kg, ig; type: organism-based; conditions: in vivo, po
SH-SY5Y [21] = test: Toxicity in human SH-SY5Y cells assessed as reduction in cell viability at 100 uM incubated for 24 hrs by MTT assay relative to control; type: cell-based
[22] = Toxicity in ICR mouse assessed as effect on body weight at 1 mg/kg, ig; type: organism-based; conditions: in vivo, po
[23] = Selectivity index, ratio of inhibition of Electrophorus electricus AChE pre-incubated for 5 mins before acetylthiocholine iodide substrate addition and measured after 2 mins to IC50 for inhibition of equine serum BChE pre-incubated for 5 mins before butyrylthiocholine iodide substrate addition and measured after 2 mins
PC-12 [24] = test: Toxicity in rat PC12 cells assessed as reduction in cell viability at 2.5 to 50 uM incubated for 24 hrs by MTT assay; type: cell-based; conditions: pc-12, 24 h
[25] = biological target: Cholinesterase (Equus caballus) (UniProt P81908); test: Noncompetitive inhibition of equine serum BChE assessed as reduction in enzymatic velocity pre-incubated for 5 mins before butyrylthiocholine iodide substrate addition and measured after 2 mins by Lineweaver-Burk plot analysis
L02 = test: Toxicity in human L02 cells assessed as reduction in cell viability at 2.5 to 100 uM incubated for 24 hrs by MTT assay; type: cell-based; conditions: l02, 24 h
[26] = Toxicity in ICR mouse model of Abeta(1-42)-induced cognition-impairment assessed as effect on body weight at 15 mg/kg, po dosed from days 3 to 14; type: organism-based; conditions: in vivo
HepG2 = test: Toxicity in human HepG2 cells assessed as toxic dose for reduction in cell viability incubated for 24 hrs by MTT assay; type: cell-based; conditions: hepg2, 24 h
SH-SY5Y [27] = test: Neuroprotection against Abeta(1-42)-induced cytotoxicity in human SH-SY5Y cells assessed as increase in cell viability incubated for 1 hr before Abeta(1-42) challenge and measured after 24 hrs by MTT assay; type: functional, cell-based
[28] = Toxicity in ICR mouse model of scopolamine-induced cognition-impairment assessed as induction of death at 15 to 30 mg/kg, po dosed 30 mins before scopolamine challenge for 10 days; type: organism-based; conditions: in vivo
Mus musculus [29] = test: Improvement in cognition in ICR mouse model of scopolamine-induced cognition-impairment assessed as improvement in escape latency at 15 to 30 mg/kg, po dosed 30 mins before scopolamine challenge for 10 days by Morris water maze test; type: functional, organism-based

Acetylcholinesterase (Electrophorus electricus), sequence (O42275 24-633 limits assumed): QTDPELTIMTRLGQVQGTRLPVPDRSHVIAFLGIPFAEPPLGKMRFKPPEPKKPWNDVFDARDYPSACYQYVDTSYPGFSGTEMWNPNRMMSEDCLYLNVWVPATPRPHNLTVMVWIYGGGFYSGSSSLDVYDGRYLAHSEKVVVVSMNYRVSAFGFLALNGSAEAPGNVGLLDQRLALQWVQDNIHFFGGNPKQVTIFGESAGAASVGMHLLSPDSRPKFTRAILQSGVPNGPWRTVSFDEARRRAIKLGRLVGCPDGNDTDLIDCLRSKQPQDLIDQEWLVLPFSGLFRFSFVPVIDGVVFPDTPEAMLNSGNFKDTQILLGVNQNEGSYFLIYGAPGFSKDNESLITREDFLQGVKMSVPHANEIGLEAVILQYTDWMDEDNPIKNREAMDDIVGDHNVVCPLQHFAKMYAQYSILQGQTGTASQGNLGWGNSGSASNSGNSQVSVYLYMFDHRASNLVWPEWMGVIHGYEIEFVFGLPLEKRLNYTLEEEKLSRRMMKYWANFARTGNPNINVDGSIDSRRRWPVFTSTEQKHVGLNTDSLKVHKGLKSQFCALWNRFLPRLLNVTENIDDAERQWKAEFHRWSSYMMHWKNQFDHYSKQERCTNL
T1 sequence (P81908 whole entry): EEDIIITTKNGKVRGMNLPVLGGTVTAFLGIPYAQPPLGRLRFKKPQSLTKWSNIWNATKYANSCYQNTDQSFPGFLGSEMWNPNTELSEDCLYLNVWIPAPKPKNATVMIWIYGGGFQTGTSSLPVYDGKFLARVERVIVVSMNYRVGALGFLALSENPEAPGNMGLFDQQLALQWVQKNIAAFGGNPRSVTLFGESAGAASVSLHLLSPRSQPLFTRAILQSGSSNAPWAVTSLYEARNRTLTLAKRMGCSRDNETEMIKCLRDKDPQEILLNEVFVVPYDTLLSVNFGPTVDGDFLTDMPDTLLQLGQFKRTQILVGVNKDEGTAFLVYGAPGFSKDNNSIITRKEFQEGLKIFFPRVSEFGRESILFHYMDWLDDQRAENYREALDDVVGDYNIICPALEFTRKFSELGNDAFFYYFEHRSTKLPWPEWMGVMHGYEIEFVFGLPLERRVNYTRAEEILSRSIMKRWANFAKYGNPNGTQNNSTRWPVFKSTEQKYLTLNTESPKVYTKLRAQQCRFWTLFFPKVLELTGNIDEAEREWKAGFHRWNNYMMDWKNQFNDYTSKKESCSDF
Cholinesterase (Equus caballus), sequence (P81908 whole entry): as above
Acetylcholinesterase, sequence (O42275 whole entry): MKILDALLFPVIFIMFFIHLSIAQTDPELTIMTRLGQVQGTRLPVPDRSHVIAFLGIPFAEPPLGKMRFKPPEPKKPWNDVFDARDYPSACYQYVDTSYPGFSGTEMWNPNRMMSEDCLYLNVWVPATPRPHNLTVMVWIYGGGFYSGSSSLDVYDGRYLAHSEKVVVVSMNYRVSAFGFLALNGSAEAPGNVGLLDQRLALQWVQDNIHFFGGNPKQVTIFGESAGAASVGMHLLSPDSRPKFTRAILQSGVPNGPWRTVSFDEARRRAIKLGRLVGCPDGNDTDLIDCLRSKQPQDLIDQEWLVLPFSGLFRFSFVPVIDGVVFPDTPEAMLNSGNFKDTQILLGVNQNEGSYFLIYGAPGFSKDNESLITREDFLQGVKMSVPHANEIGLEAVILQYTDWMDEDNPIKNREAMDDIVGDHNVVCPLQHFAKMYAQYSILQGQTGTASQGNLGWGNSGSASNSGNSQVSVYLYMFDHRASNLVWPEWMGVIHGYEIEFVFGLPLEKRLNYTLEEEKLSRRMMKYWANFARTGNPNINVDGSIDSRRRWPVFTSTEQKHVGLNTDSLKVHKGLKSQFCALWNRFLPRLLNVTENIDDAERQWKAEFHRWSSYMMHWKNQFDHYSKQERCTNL
Cholinesterase (Homo sapiens, UniProt P06276), sequence (P06276 whole entry): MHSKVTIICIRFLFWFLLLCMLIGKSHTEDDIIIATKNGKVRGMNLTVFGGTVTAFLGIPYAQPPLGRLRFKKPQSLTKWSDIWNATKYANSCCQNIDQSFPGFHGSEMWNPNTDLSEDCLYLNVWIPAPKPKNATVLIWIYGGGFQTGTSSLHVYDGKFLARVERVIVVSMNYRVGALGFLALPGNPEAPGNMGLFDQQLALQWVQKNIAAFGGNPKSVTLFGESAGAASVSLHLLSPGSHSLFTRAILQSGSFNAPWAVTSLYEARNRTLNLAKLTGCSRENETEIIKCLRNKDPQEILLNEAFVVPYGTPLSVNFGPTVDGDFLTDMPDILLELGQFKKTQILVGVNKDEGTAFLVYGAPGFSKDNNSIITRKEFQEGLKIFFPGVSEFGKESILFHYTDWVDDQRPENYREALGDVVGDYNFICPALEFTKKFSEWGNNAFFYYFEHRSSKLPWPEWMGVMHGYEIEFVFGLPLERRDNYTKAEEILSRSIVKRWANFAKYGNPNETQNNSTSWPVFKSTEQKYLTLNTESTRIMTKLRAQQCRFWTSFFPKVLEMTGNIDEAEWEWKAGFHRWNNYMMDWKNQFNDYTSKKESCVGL

With `C[C@]12CCC(=O)C=C1CC[C@@H]1[C@@H]2C(=O)C[C@]2(C)C(=O)CC[C@@H]12` [ADRENOTERONE] the Papp [1] was 6.05 ×10⁻⁶ cm/s.
`COCCN(Cc1csc(COc2ccc(C)cc2)n1)C(=O)c1ccc(OC)cc1` gave an inhibition [2] of 7.17% and an inhibition [3] of 5.79%.
`CN(CCc1noc(-c2cc3ccccc3[nH]2)n1)C(=O)c1ccc(N(C)C)cc1` showed an inhibition [2] of 35.4% and an inhibition [3] of 39.4%.
`C[C@]12CC[C@@H]3c4ccc(O)cc4CC[C@H]3[C@@H]1CC[C@@H]2O` [ESTRADIOL] showed a Papp [1] of 20.5 ×10⁻⁶ cm/s.
`CCc1noc(-c2cnc3nc(C)ccc3c2Nc2ccc3c(c2)OCCO3)n1` showed an inhibition [2] of 1.63%, a pIC50 (Acetylcholinesterase) of 5.81 and an inhibition [3] of 50.6%.
In the case of `Cc1ccc(OCc2nc(CN(CC(C)C)C(=O)c3ccc4c(c3)OCO4)cs2)cc1`, the inhibition [2] was 54%, the pIC50 (Cholinesterase [4]) was 4.75 and the pIC50 (Acetylcholinesterase) was 4.96. It also gave an inhibition [3] of -6.37%.
Molecule `O=C(c1ccc(F)cc1)C1CCN(CCn2c(=O)[nH]c3ccccc3c2=O)CC1` [KETANSERIN] has a CLint scaled at 1 µM [5] of 55.3 mL/min/kg and a half-life at 1 µM [6] of 31.4 min.
`COc1ccc(C2=C(Nc3ccc4oc5ccccc5c4c3)c3ccccc3C2=O)cc1` gave an inhibition [2] of 4.03% and an inhibition [3] of 42.6%.
In the case of `COc1ccc(-c2noc(CN(C(=O)c3ccc4c(c3)OCO4)C3CCCCC3)n2)cc1`, the inhibition [2] was 4.33% and the inhibition [3] was -3.2%.
For `COc1cc2c(cc1NC(=O)C(=O)c1c(-c3ccccc3)[nH]c3ccccc13)oc1ccccc12`, the inhibition [2] was 0.73% and the inhibition [3] was -4.57%.
In the case of `COc1ccc(-c2cccc(-n3cncc3C(=O)N3Cc4ccccc4C3)c2)cc1OC`, the inhibition [2] was 53.4%, the pIC50 (Cholinesterase [4]) was 4.76 and the inhibition [3] was 6.29%.
`CN(CCc1noc(-c2cc3ccccc3[nH]2)n1)C(=O)c1ccc(C(C)(C)C)cc1` showed an inhibition [2] of 20.3% and an inhibition [3] of 51.6%.
`CC(=O)[C@H]1CC[C@H]2[C@@H]3CCC4=CC(=O)CC[C@]4(C)[C@H]3CC[C@]12C` [PROGESTERONE] gave a Papp [1] of 15.5 ×10⁻⁶ cm/s.
`CN1C(C(=O)Nc2ccccn2)=C(O)c2ccccc2S1(=O)=O` [PIROXICAM] gave a Papp [1] of 1.69 ×10⁻⁶ cm/s.
With `O=C(c1ccc(C(F)(F)F)cc1)N(CCc1nc(-c2ccc(C(F)(F)F)cc2)no1)Cc1ccco1` the inhibition [3] was -0.61%.
In the case of `COc1cc2c(cc1OC)C(=O)C(CC1CCN(Cc3ccccc3)CC1)C2` (stereo not drawn) [DONEPEZIL], the Activity (Mus musculus [7]) was “Active”, the Time (Mus musculus [8]) was 15.3 s and the Activity (Mus musculus [9]) was 24.08%. The Activity (Mus musculus [10]) was 65.23%.
Work on `CCCN(Cc1csc(COc2ccc(C)cc2)n1)C(=O)c1ccc2c(c1)OCO2` yielded an inhibition [2] of 54.8%, a pIC50 (Cholinesterase [4]) of 4.85 and an inhibition [3] of -0.26%.
Work on `CN(C)CCCN1c2ccccc2Sc2ccc(Cl)cc21` [CHLORPROMAZINE] yielded a Papp [1] of 12.4 ×10⁻⁶ cm/s.
Molecule `Clc1cccc(Cl)c1N=C1NCCN1` [CLONIDINE] has a Papp [1] of 8.8 ×10⁻⁶ cm/s.
`Cc1ccc(-c2nc3ccccc3o2)cc1NCc1cc(Cc2ccccc2)ccc1O` gave an inhibition [2] of 8.49% and an inhibition [3] of 6.25%.
With `NCCc1ccc(O)c(O)c1` [DOPAMINE] the Papp [1] was 3.3 ×10⁻⁶ cm/s.
For `Cc1ccc2cc(NC(=O)Cn3c(-c4nonc4N)nc4ccccc43)ccc2n1`, the pKi (Cholinesterase [11]) was 6.63, the Activity [12] was “Non-Toxic” and the Activity (Mus musculus [7]) was “Active”. For the same molecule, the inhibition [2] was 96.5%, the Papp [1] was 7.84 ×10⁻⁶ cm/s and the Activity (SH-SY5Y [13]) was “Non-Toxic”. The Activity (PC-12 [14]) was 50%, the pIC50 (Cholinesterase [4]) was 6.74 and the Activity (Mus musculus [15]) was “Dose-dependent effect”. For the same molecule, the pIC50 (Cholinesterase [16]) was 6.49, the Activity [17] was “Non-Toxic” and the Activity [18] was “Non-Toxic”. The CLint scaled at 1 µM [5] was 41.5 mL/min/kg, the Time (Mus musculus [8]) was 8.83 s and the Activity [19] was “Non-Toxic”. For the same molecule, the Activity [20] was “Non-Toxic”, the pIC50 (Acetylcholinesterase) was under 4.00 and the Activity (SH-SY5Y [21]) was 50%. For the same molecule, the Activity [22] was “Non-Toxic”, the Activity (Mus musculus [9]) was 40.56% and the Ratio IC50 [23] was over 500. For the same molecule, the Activity (PC-12 [24]) was “Non-Toxic”, the inhibition [25] was “Dose-dependent effect” and the Activity (L02) was “Non-Toxic”. The Activity [26] was “Non-Toxic”, the Activity (HepG2) was over 20 µM and the inhibition [3] was 15.3%. The Activity (Mus musculus [10]) was 63.44%, the Activity (SH-SY5Y [27]) was “Dose-dependent effect” and the half-life at 1 µM [6] was 41.9 min. For the same molecule, the Activity [28] was “Non-Toxic” and the Activity (Mus musculus [29]) was “Dose-dependent effect”.
